Data reported in ChEMBL document CHEMBL1629711, “Synthesis and in vitro biological evaluation of new polyamine conjugates as potential anticancer drugs” (Eur J Med Chem, 2010).
Activity calls are given as the source filed them. The calls are words filed in the database; no cut-off is given here.

Legend:
A-375 [1] = assay: Cytotoxicity against human A375 cells at 1 to 100 uM after 44 hrs by MTT assay; type: functional, cell-based
A-375 [2] = assay: Cytotoxicity against human A375 cells after 44 hrs by MTT assay; type: functional, cell-based; conditions: for IC50: A-375, 44 h
A-375 [3] = assay: Induction of necrosis in human A375 cells assessed as morphological changes at IC50 concentration after 44 hrs using acridine orange and ethidium bromide staining by fluorescence microscopy; type: functional, cell-based
A-375 [4] = assay: Induction of apoptosis in human A375 cells assessed as morphological changes at IC50 concentration after 44 hrs using acridine orange and ethidium bromide staining by fluorescence microscopy; type: functional, cell-based
A-375 [5] = assay: Cell cycle arrest in human A375 cells assessed as accumulation at hypodiploid subG1 phase at 20 uM after 24 hrs using propidium iodide staining by flow cytometry relative to control; type: functional
A-375 [6] = assay: Cell cycle arrest in human A375 cells assessed as accumulation at S phase at 20 uM after 24 hrs using propidium iodide staining by flow cytometry relative to control; type: functional
A-375 [7] = assay: Induction of apoptosis in human A375 cells assessed as morphological changes at 50 uM after 44 hrs using acridine orange and ethidium bromide staining by fluorescence microscopy; type: functional
A-375 [8] = assay: Cell cycle arrest in human A375 cells assessed as accumulation at hypodiploid subG1 phase at 50 uM after 24 hrs using propidium iodide staining by flow cytometry relative to control; type: functional
A-375 [9] = assay: Cell cycle arrest in human A375 cells assessed as accumulation at G0/G1 phase at 20 uM after 24 hrs using propidium iodide staining by flow cytometry relative to control; type: functional
A-375 [10] = assay: Cell cycle arrest in human A375 cells assessed as accumulation at G0/G1 phase at 50 uM after 24 hrs using propidium iodide staining by flow cytometry relative to control; type: functional
A-375 [11] = assay: Cell cycle arrest in human A375 cells assessed as accumulation at G2/M phase at 50 uM after 24 hrs using propidium iodide staining by flow cytometry relative to control; type: functional
A-375 [12] = assay: Cell cycle arrest in human A375 cells assessed as accumulation at S phase at 50 uM after 24 hrs using propidium iodide staining by flow cytometry relative to control; type: functional
A-375 [13] = assay: Cell cycle arrest in human A375 cells assessed as accumulation at G2/M phase at 20 uM after 24 hrs using propidium iodide staining by flow cytometry relative to control; type: functional

| SMILES | Activity (A-375 [1]) | inhibition (A-375 [2]) | IC50 (A-375 [2]) [µM] | Activity (A-375 [3]) | Activity (A-375 [4]) | also measured |
| --- | --- | --- | --- | --- | --- | --- |
| O=C1c2cccc([N+](=O)[O-])c2C(=O)N1CCCOCCCCOCCCN1C(=O)c2cccc([N+](=O)[O-])c2C1=O | inactive | – | – | – | – | – |
| CN(CCCNC(=O)c1cnc2ccccc2c1N)CCCNC(=O)c1cnc2ccccc2c1N | – | Dose-dependent effect | 87.9 | inactive | inactive | – |
| O=C1c2ccccc2C(=O)N1CCCOCCCCOCCCN1C(=O)c2ccccc2C1=O | inactive | – | – | – | – | – |
| Nc1c(C(=O)NCCCOCCCCOCCCNC(=O)c2cnc3ccccc3c2N)cnc2ccccc12 | – | Dose-dependent effect | 15.5 | inactive | inactive | Activity (A-375 [5]): 2%; Activity (A-375 [6]): 22%; Activity (A-375 [7]): 8%; Activity (A-375 [8]): 3%; Activity (A-375 [9]): 58%; Activity (A-375 [10]): 39%; Activity (A-375 [11]): 8%; Activity (A-375 [12]): 53%; Activity (A-375 [13]): 20% |
| O=C1c2ccccc2C(=O)N1CCCN1CCN(CCCN2C(=O)c3ccccc3C2=O)CC1 | inactive | – | – | – | – | – |
| Nc1c(C(=O)NCCCN2CCN(CCCNC(=O)c3cnc4ccccc4c3N)CC2)cnc2ccccc12 | – | Dose-dependent effect | 16.8 | inactive | inactive | Activity (A-375 [5]): 4%; Activity (A-375 [6]): 31%; Activity (A-375 [7]): 30%; Activity (A-375 [9]): 49%; Activity (A-375 [13]): 21% |
| Cc1ccc2nnc(C(=O)NCCCN3CCN(CCCNC(=O)c4nnc5ccc(C)cc5c4N)CC3)c(N)c2c1 | – | Dose-dependent effect | 31.6 | inactive | inactive | Activity (A-375 [5]): 4%; Activity (A-375 [6]): 19%; Activity (A-375 [7]): 14%; Activity (A-375 [8]): 9%; Activity (A-375 [9]): 35%; Activity (A-375 [10]): 32%; Activity (A-375 [11]): 46%; Activity (A-375 [12]): 22%; Activity (A-375 [13]): 46% |
| CN(CCCN1C(=O)c2cccc([N+](=O)[O-])c2C1=O)CCCN1C(=O)c2cccc([N+](=O)[O-])c2C1=O | inactive | – | – | – | – | – |
| CN(CCCN1C(=O)c2ccccc2C1=O)CCCN1C(=O)c2ccccc2C1=O | inactive | – | – | – | – | – |
| O=C1c2cccc([N+](=O)[O-])c2C(=O)N1CCCN1CCN(CCCN2C(=O)c3cccc([N+](=O)[O-])c3C2=O)CC1 | inactive | – | – | – | – | – |
| Cc1ccc2nnc(C(=O)NCCCN(C)CCCNC(=O)c3nnc4ccc(C)cc4c3N)c(N)c2c1 | – | Dose-dependent effect | 116 | inactive | inactive | – |
| Cc1ccc2nnc(C(=O)NCCCOCCCCOCCCNC(=O)c3nnc4ccc(C)cc4c3N)c(N)c2c1 | – | Dose-dependent effect | 100 | inactive | inactive | – |
